Results taken from US20150315202A1, “CHLORIN DERIVATIVE USEFUL IN PHOTODYNAMIC THERAPY AND DIAGNOSIS” (RMW CHO GROUP LIMITED, priority 2012, published 2015).

Tests used:
[1] = test system: S180 sarcoma; experiment: Photodynamic therapy study with mice with subcutaneous S180 sarcoma; format: in vivo, Kunming mice
Procedure: In this experiment the effects of photodynamic therapy mediated by three different photosensitizers, namely Duteroporphyrin, chlorin e4 sodium and 5-ALA, on mouse S180 sarcoma were observed. Duteroporphyrin and 5-ALA are porphyrin derivatives.
40 Kunming mice with well grown subcutaneous S180 sarcoma were randomly divided into four groups: (A) Duteroporphyrin group (10 mg/kg), (B) chlorin e4 sodium group (20 mg/kg), (C) 5-ALA group (100 mg/kg) and (D) blank control group. The mice in groups A and B were subjected to irradiation 8-10 hours after tail vein injection of the photo sensitizers, while the mice in group C were subjected to irradiation 3 hours after tail vein injection of the photosensitizer. A laser with a wavelength of 630 nm was used for groups A and C, while a duel-frequency laser with wavelengths of 660 nm and 760 nm was used for group B. The local tumour sites were irradiated vertically, with the diameter of the laser spots being 1.2-1.5 cm. The whole tumour and 3-5 mm of normal tissue around the tumour were covered by the laser. The lasers were applied to groups A, B and C for 20 minutes, with a power density of 150 mW/cm^2 and an energy density of 180 J/cm^2. The mice in control group D were not subjected to irradiation.

[2] = test system: lung cancer; experiment: In vivo studies Example 5: patient, oral chlorin e4 sodium plus laser and LED light; set-up: species or system human; details: three months after one course
Procedure: A patient with lung cancer was treated successfully. The treatment consisted of one course of five doses of 62.5-187.5 mg chlorin e4 sodium administered orally over the course of eight days. 24-48 hours after each oral dose of chlorin e4 sodium, the patient was treated with laser and LED light having a wavelength of 660 nm and 760 nm.

[3] = Singlet oxygen detection by photosensitized oxygenation of DPIBF; format: physicochemical; details: ethanol, red light 660 nm
From the text: The second method of singlet oxygen detection was based on photosensitized oxygenation of the singlet oxygen conjugate 1,3-diphenylisobenzofuran (DPIBF) (Acros Organics, United Kingdom). DPIBF chemically binds to two singlet oxygens (^1O2) (FIG. 3). This method was applied to chlorin e4 sodium solutions in ethanol. The major absorption band of DPIBF is located at 414-415 nm. The molar absorption coefficient in this maximum, εDPIBF, is known to be 23500 M^−1 cm^−1. Tested solutions were irradiated by the monochromatic light from a xenon lamp using the excitation system of the spectrofluorimeter Perkin-Elmer MPF-44B, the spectral width of the monochromator bandwidth corresponding to 5 nm. Radiant power was measured using the calibrated detector ThorLabs PM-100 (Germany). The singlet oxygen quantum yields (ΦΔ) were calculated according to the equation: […]

[4] = Absorption spectra of chlorin e4 sodium solutions; format: physicochemical; details: all solvents (ethanol, water, water + SDS)
Procedure: Absorption spectra were recorded using computerized spectrophotometers Hitachi 3400 (Japan) and SF-2000 (Russia). Fluorescence spectra were measured with a computerized spectrofluorimeter Perkin-Elmer MPF-44B. 10 mm wide quartz cuvettes were used for absorption and fluorescence measurements. Fluorescence was detected at a right angle to the excitation beam. The spectral bandwidth of the monochromator was 3 nm. […] The fluorescence quantum yields (ΦF) were determined using as a reference, solutions of TPPS (m-tetrakis(p-sulfonatophenyl)porphine) in ethanol. According to the literature, the most likely fluorescence quantum yield of TPPS in air-saturated water and ethanol is equal to 0.08 (K. Kalyanasundaram and M. Neumann-Spallart, Photophysical and redox properties of water soluble porphyrins in aqueous media, J. Phys. Chem., 1982, 86, 5163-5169; and A. T. Gradyushko, A. N. Sevchenko, K. N. Solovyov and M. P. Tsvirko, Energetics of photophysical processes in chlorophyll-like molecules, Photochem. Photobiol., 1970, 11, 387-400). The fluorescence of the samples was excited by the monochromatic light corresponding to the maximum of the Soret bands: 415 nm for TPPS in ethanol and 413 nm for TPPS in water, and 403 nm for chlorin e4 sodium in water and ethanol. The monochromator bandwidth was 3 nm. The fluorescence quantum yields (ΦF) were calculated using the following equation: […]

[5] = test system: stage IVB Hodgkin's lymphoma with metastases; experiment: In vivo studies Example 4: patient, oral chlorin e4 sodium plus laser and LED light; set-up: species or system human
Procedure: A patient with stage IVB Hodgkin's lymphoma with metastases in the liver, lymphatic system, spleen, lung and bones, was treated successfully. The treatment consisted of three courses. For each course, five doses of 62.5-187.5 mg chlorin e4 sodium were administered orally over the course of eight days. 24-48 hours after each oral dose of chlorin e4 sodium, the patient was treated with laser and LED light having a wavelength of 660 nm and 760 nm.
Subsequently the patient was treated with a further two courses. Again, for each course, five doses of 62.5-187.5 mg chlorin e4 sodium were administered orally over the course of eight days. 24-48 hours after each oral dose of chlorin e4 sodium, the patient was treated with laser and LED light having a wavelength of 660 nm and 760 nm.

[6] = 21 days after the treatments, P<0.05

## C=Cc1c(C)c2cc3nc(c(C)c4[nH]c(cc5nc(cc1[nH]2)C(C)=C5CC)c(C)c4C(=O)O)[C@@H](CCC(=O)O)[C@@H]3C [chlorin e4 sodium]
[1]; 24 hours after the treatment
  Pathological changes of tumour tissues (HE staining): a wide range of tumour necrosis, tumour vascular disruption and neutrophil infiltration
[1]; 24 hours after treatments
  Living tumour cells versus control group D (FCM): obviously fewer
  Proportions of apoptotic and necrotic tumour cells versus control group D (FCM): a lot higher
[1]; [6]
  Mean tumour volume versus control group D: statistically significantly smaller
  Mean tumour volume, group B versus group C (5-ALA): statistically significantly smaller in group B than group C
[1]; after treatments
  Tumour appearance after treatment (eschars): Black eschars
[1]; mouse, in vivo
  Recovery of skins and fur: fully recovered
[1]; six days after the treatments
  Sizes of tumours versus control group D: no obvious difference
[1]; summary of study, P<0.05
  Therapeutic effect compared with 5-ALA: statistically significantly better therapeutic effect
[1]; tail vein: Duteroporphyrin 10 mg/kg, chlorin e4 sodium 20 mg/kg, 5-ALA 100 mg/kg, laser 20 minutes, 180 J/cm^2
  Tumour inhibition rate: 75.4%
[2]
  CT scan finding: tumour breakdown
[3]
  Quantum yield of singlet oxygen generation: 0.68±0.05
[4]
  Aggregation state from absorption spectra: mostly monomeric
[5]; after a further two courses
  Response (PET/CT): good treatment response
[5]; after three courses
  Tumours in areas treated with light (CT): some tumours disappeared altogether and some tumours reduced in size
[5]; life expectancy before treatment only two weeks
  Survival time: two years and two months
